Source: patent US20210205340A1, “COMPOSITIONS COMPRISING SIALYLATED OLIGOSACCHARIDES FOR USE IN INFANTS OR YOUNG CHILDREN TO PREVENT LATER IN LIFE OBESITY OR RELATED COMORBIDITIES AND PROMOTE A HEALTHY GROWTH” (NESTEC S.A., priority 2016, published 2021)
“Also recorded” adds a separate entry of the source.

Tested on: NCI-H716 cells
Experiment: Calcium assay: activation of NCI-H716 cells by sialylated oligosaccharides (change in fluorescence ratio from intracellular calcium increase)
Format: cell-based, human
Settings: for significance of the increase in fluorescence ratio / concentration dependence of calcium response / activation of NCI-H716 cells / fluorescence ratio (intracellular calcium response): NCI-H716 cells; for significance of the increase in fluorescence ratio: 5 mg/mL, 10 mg/mL and 20 mg/mL, p<0.05 vs Negative control, two-sided t-test; for concentration dependence of calcium response / activation of NCI-H716 cells: 1-20 mg/mL, FIG. 1 / FIG. 3; for fluorescence ratio (intracellular calcium response): all the tested concentrations (1 mg/mL, 5 mg/mL, 10 mg/mL and 20 mg/mL), vs buffer negative control; for intracellular calcium release: in vitro system with endocrine intestinal cells, indicator of potential GLP-1 secretagogue capacity
Source text: NCI-H716 is a cell line derived from human L-cells, the enteroendocrine cells that secrete GLP-1, and it is often used as a model of GLP-1 secretion. Unstimulated NCI-H716 cells secrete a basal level of GLP-1 and activation of the cells leads to dose-dependent increase in GLP-1 secretion. Activation of the NCI-H716 cells and subsequent release of GLP-1 can be triggered by nutrients such as palmitic acid, oleic acid, and meat hydrolysate, Gastrin Releasing Peptide (GRP), the cholinergic molecule Carbachol, bitter compounds such as denatonium, ginsenosides and other molecules.
Activation of NCI-H716 cells by ionomycin, GRP, denatonium, or ginsenosides leads to increased intracellular calcium. Elevation of intracellular calcium is therefore a marker of cell activation and in NCI-H716 cells it could be considered as an indicator of GLP-1 release.
A calcium assay was used to determine if NCI-H716 cells respond to human milk oligosaccharides (sialylated oligosaccharides) or components/precursors thereof (lactose and sialic acid). In this assay, cultured NCI-H716 cells were loaded with a fluorescent calcium sensitive dye then stimulated with the HMOs. The response to the stimulus was measured by change in fluorescence ratio in consequence of intracellular calcium increase. The tested HMOs were 3′-sialyllactose (3SL) and 6′-sialyllactose (6SL). They were tested individually.
GRP (Gastrin Releasing Peptide): positive control
Tested HMOs concentrations: 1 mg/mL, 5 mg/mL, 10 mg/mL and 20 mg/mL
Tested lactose and sialic acid concentrations: 5.5 mg/mL and 4.72 mg/mL respectively (correspond to the amounts contained in 10 mg/mL of 3SL, in order to make a suitable comparison with 10 mg/mL of 3SL)

Row | SMILES | specificity of the calcium response (3SL 10 mg/mL compared with its components lactose and sialic acid, FIG. 2) | significance of the increase in fluorescence ratio | concentration dependence of calcium response / activation of NCI-H716 cells | fluorescence ratio (intracellular calcium response) | intracellular calcium release | activation of NCI-H716 cells (calcium response) (lactose 5.5 mg/mL (amount contained in 10 mg/mL of 3SL), FIG. 2) | activation of NCI-H716 cells (calcium response) (sialic acid 4.72 mg/mL (amount contained in 10 mg/mL of 3SL), FIG. 2)
1 | CC(=O)N[C@H]1[C@H]([C@H](O)[C@H](O)CO)O[C@@](O[C@H]2[C@@H](O)[C@@H](CO)O[C@@H](O[C@H]3[C@H](O)[C@@H](O)C(O)O[C@@H]3CO)[C@@H]2O)(C(=O)O)C[C@@H]1O (stereo partly drawn) [3SL, (6R)-5-Acetamido-3,5-dideoxy-6-[(1R,2R)-1,2,3-trihydroxypropyl]-β-L-threo-hex-2-ulopyranonosyl-(2->3)β-D-galactopyranosyl-(1->4)-D-glucopyranose] | specific | significant | clear concentration dependent calcium response; also recorded: dose dependent activation | enhanced | increased intracellular calcium release | – | –
2 | CC(=O)N[C@H]1[C@H]([C@H](O)[C@H](O)CO)O[C@@](OC[C@H]2O[C@@H](O[C@H]3[C@H](O)[C@@H](O)C(O)O[C@@H]3CO)[C@H](O)[C@@H](O)[C@H]2O)(C(=O)O)C[C@@H]1O (stereo partly drawn) [6SL, (6R)-5-Acetamido-3,5-dideoxy-6-[(1R,2R)-1,2,3-trihydroxypropyl]-β-L-threo-hex-2-ulopyranonosyl-(2->6)β-D-galactopyranosyl-(1->4)-D-glucopyranose] | – | significant | clear concentration dependent calcium response; also recorded: dose dependent activation | enhanced | increased intracellular calcium release | – | –
3 | OC[C@H]1O[C@@H](O[C@H]2[C@H](O)[C@@H](O)C(O)O[C@@H]2CO)[C@H](O)[C@@H](O)[C@H]1O (some centres unmarked) [Lactose, lactose, reference compound] | – | – | – | – | – | did not activate the cells | –
4 | CC(=O)N[C@H]1[C@H]([C@H](O)[C@H](O)CO)OC(O)(C(=O)O)C[C@@H]1O (some centres unmarked) [sialic acid, N-acetylneuraminic acid, reference compound] | – | – | – | – | – | – | did not activate the cells
